Results on one compound are retold here after patent publication US12023330B2, “Use of manzamines as antiproliferative agent” (priority 2020, dated 2024).

In general, pIC50 refers to the IC50 on a negative log10 scale, so that one unit is a factor of ten. A low value points to a large IC50.

Common to all, as to type: cell-based, human
Assay [1] concerns C33A cells. The assay is described as follows: CellTiter-Glo cell viability assay. How it is done:
(§1) Biological Effect of Marine Sponge Natural Product Manzamine A on Cervical Cancer Cell Growth. We determined the biological activity of manzamine A on cervical cancer cells C33A (HPV-negative), HeLa, SiHa, and CaSki (HPV16/18-positive) using a wide range of concentrations (0-40 μM) at different time points (24, 48 and 72 hours). The CellTiter-Glo cell viability assay determined the cell viability based on metabolically active cells producing ATP in the cell culture. […] Twenty thousand (2×10^4) cells were seeded in ninety-six well plates and treated with a wide range of 1 μM to 40 μM concentration of manzamine A for three time points (24, 48 and 72 h). The experiment was repeated at least three times in quadruplicates from different cell preparations with similar results. Percent viable cells were used to calculate IC50 values and are shown in the inset for all the cell lines at their respective time-points. The percent viability values represent standard error from the mean (mean±SE).
(§2) Cell Culture. Human cervical cancer cell lines C33A, HeLa, SiHa, and CaSki were purchased from the American Type Culture Collection (ATCC, Manassas, VA). Cells were grown in Dulbecco's Modified Eagle Medium (DMEM) medium supplemented with 10% fetal bovine serum, 2 mM L-glutamine, 100 U/ml of penicillin-streptomycin, and maintained at 37° C. with 5% CO2 in a humidified incubator.
(§3) Cell Viability Assay. Cell viability was measured by using Cell Titer-Glo Luminescent Cell Viability Assay Kit (Promega, Leiden, Netherlands) according to the manufacturer's instructions. Briefly, 2×10^4 cells were seeded in 96 well plates. Next day, cells were treated with different concentrations of MA (0-40 μM) for 24, 48 and 72 hours. Percent viability was calculated using the formula: percent (%) viability=100×(Treatment/Control). The IC50 value was calculated from the dose responsive sigmoid curve generated from % viability using GrpaphPad Prism 7 software.
For orientation: ATP-based viability assays read luminescence as a measure of living cells.

Assay [2] deals with CaSki cells. The assay is described as follows: CellTiter-Glo cell viability assay. How it is done:
as §1, §2, §3

Assay [3] has as its system HeLa cells. The assay is described as follows: CellTiter-Glo cell viability assay. How it is done:
as §1, §2, §3

Assay [4] concerns C33A cells. The assay is described as follows: Apoptosis analysis (annexin V and PI staining). On the procedure:
(§4) Since programmed cell death (apoptosis) is a key mechanism by which anti-cancer drugs kill cancer cells, we determined the apoptotic effect of manzamine A on cervical cancer cells using annexin V and PI staining. […] Given the sensitivity of C33A and HeLa cell lines to manzamine A, an increase in apoptosis was expected. […] CaSki cells were the least sensitive and corresponds to the IC50 values as in FIG. 2.
(§5) Cell-cycle and Apoptosis Analysis. Cervical cancer cells were seeded and treated with different concentrations of manzamine A (1) as above. Following trypsinization, one part of the cells was washed with PBS and fixed in chilled 70% ethanol on ice for 30 min. Cells were treated with RNAse A (1 mg/ml) at room temperature for 30 min and stained with propidium iodide (PI: 20 μg/ml). Cell-cycle distribution was analyzed by flow cytometry (Beckman Coulter Epics Elite, Beckman). A minimum of 10,000 events were counted per sample, and the data were analyzed using CXP software (Beckman Coulter) for the proportions of cells in G0/G1, S and G2/M phases of the cell cycle. The second part of the cells were washed twice with PBS and re-suspended in the buffer containing Alexa Fluor conjugated-Annexin-V and PI (Life Technologies, USA). The double staining of the cells was analyzed by flow cytometric analysis. A total of 10,000 cell events were collected to analyze the extent of early, late apoptosis, or necrosis from each sample with the percentages of bound annexin-V^+/PI^−, annexin V^+/PI^+, and annexin V^−/PI^+, respectively.

Assay [5] has as its system CaSki cells. The assay is described as follows: Apoptosis analysis (annexin V and PI staining). The settings on record: 4 μM, 48 hours. How it is done:
as §4, §5

The subject of assay [6] is HeLa cells. The assay is described as follows: Apoptosis analysis (annexin V and PI staining). On the procedure: as §4, §5
Assay [7] deals with p53, p21, cyclin D1, total Rb, phospho-Rb. The assay is described as follows: Protein expression analysis of cell cycle regulatory proteins. The settings on record: 2 and 4 μM, 48 h. The source says:
Molecular Targets of Manzamine A (1). HeLa, SiHa and CaSki cell lines represent the most common form of cervical cancer infected by the HPV type 16 (SiHa and CaSki) and 18 (HeLa). Cervical cancer is primarily aggravated by the sustained expression of HPV-derived E6 and E7 oncogenes utilizing distinct mechanisms that affect cell-cycle checkpoints. For instance, E6 promotes p53 degradation, while E7 is associated with phosphorylation of retinoblastoma (Rb) proteins. See (22) Huh, K.; Zhou, X.; Hayakawa, H.; Cho, J. Y.; Libermann, T. A.; Jin, J.; Harper, J. W.; Munger, K. J. Virol. 2007, 81, 9737-9747 and Talis, A. L.; Huibregtse, J. M.; Howley, P. M. J. Biol. Chem. 1998, 273, 6439-6445. Both p53 and Rb are tumor suppressor genes and play a critical role in maintaining cell cycle regulation. Additionally, interaction of cyclin D1 with Rb protein and their expression levels correlate positively in association with tumorigenesis. Therefore, we sought to examine the molecular targets of manzamine A leading to anti-cancer activity in cervical cancer. […] Following the overnight attachment of 1×10^6 cells/well, the cells were treated with manzamine A (1) at 2 and 4 μM concentrations and incubated for 48 h. Cell lysates were prepared for protein analysis. […] However, detailed mechanistic studies of manzamine A determining anti-cancer effect are required to further substantiate these observations.
Protein Expression Analysis. C33A, HeLa, SiHa and CaSki cells were seeded at a density of 1×10^6 cells/100 mm petri dish. The next day, the cells were treated with 2 μM or 4 μM concentrations of manzamine A (1) or with 10, 20, or 40 μM concentrations with apigenin (Sigma, MO) and incubated for 48 hours. At the given time-point, the cells were harvested by trypsinization, washed with PBS, and lysed using radioimmunoprecipitation assay (RIPA) buffer containing a cocktail of protease inhibitors (Sigma, MO) to extract protein. Following quantification by colorimetric assay (Bio-Rad), equal amount of protein was loaded on to SDS-polyacrylamide gel and transferred to polyvinylidene difluoride (PVDF) membrane, which was blocked in 5% non-fat dry milk in tris-buffered saline with tween-20 (TBST) and incubated with primary antibody against p53, p21, Cyclin D1, SIX1, GAPDH (Cell signaling) or CK2α (R&D Systems) at a 1:500 dilution. For total CK2a, Rb and pRb, the blocking and antibody dilutions were made in 3% bovine serum albumin (BSA). The membrane was washed with TBST and incubated with secondary IgG HRP conjugate at 1:2000 dilution. The specific band of the protein was visualized with chemiluminescence reagent exposed onto BioMax Film (Kodak) and ChemoDoc-it^2 imager (UVP).

pIC50: −log10 of the molar value.

Turning to `O[C@]12C=C(c3nccc4c3[nH]c3ccccc34)[C@@H]3CCN(CCCC/C=C\CC1)C[C@@]31C[C@@H]3/C=C\CCCCN3[C@H]12` [manzamine A], the pIC50 in assay [1] (48 hours) was 5.68; in assay [1] (72 hours), 5.80; in assay [2] (48 hours) it was 4.70; in assay [2] (72 hours), 5.03; in assay [3] (48 hours) it was 5.40; in assay [3] (72 hours), 5.28. For the same compound, the “percentage of induced apoptotic cells (apoptosis+ necrosis)” value in assay [4] (4 μM, 48 hours) turned out to be 36.5%; in assay [5], 23.2%; in assay [6] (4 μM, 48 hours), 75.9%. Further, the apoptosis and necrosis entry in assay [4] (24 hours) is listed as “induces apoptosis”. Also, the apoptosis result in assay [6] (forty-eight hours treatment) is reported as “significant increase”. In assay [7] (C33A), the p21 protein level entry is listed as “not-detectable”. The p53 protein level entry in assay [7] (C33A) was “did not show any change”. Besides, in assay [7] (HeLa), the p21 level result is listed as “remains unchanged”. The p53 level result in assay [7] (HeLa) is given as “marginal increase”. Further, the “cyclin D1, total Rb, and phospho-Rb protein level” value in assay [7] (SiHa and CaSki) is “inhibition”. In addition, the “p53 and p21 protein level” value in assay [7] (SiHa and CaSki) is “increase”.
